In brackets after ≈: the same amount, converted by molar mass.

Data set [1] in a line: Forced degradation study (solution stability). Conditions: 387 μg/mL with 25% acetonitrile in acid, base, peroxide and water under heat and light stress. Format: physicochemical. The procedure: A forced degradation study was performed to generate potential degradation products and assess stability liabilities.
Data set [2] can be described thus: physchem. Here is the method:
The pH solubility profile was generated first with Sample D containing polymorph Form A, and then with Sample F containing polymorph Form B, in HCl/NaOH solutions. After 24 hour equilibration, suspensions were centrifuged and the supernatants assayed by HPLC.
The solubility data was analyzed as a function of pH using the Henderson-Hasselbach equation:
Solubility=S0·[10^(PH-pKa)+1],
where S0 is the intrinsic solubility of the free acid.

The nature of data set [3]: Second CACO-2 study, propranolol as reference. The class given is in vitro ADME. Conditions: human, Caco-2. From the text:
(§1) The second CACO-2 study gave somewhat different results (Table 12). Because metoprolol interferes with the LC/MS assay, propranolol, which has a permeability that is […] metoprolol, was used as the FDA calibration compound. The apical pH was controlled at 6 and basolateral pH at pH 7. In addition, verapamil was used as a competitive inhibitor of the Pgp (P-glycoprotein) transporter. The ratios to propranolol were 1.00 and 0.77 with and without verapamil. […] The B→A/A→B ratios were low at 0.3 and 0.3, with and without verapamil, respectively, indicating again no efflux […].

Data set [4] relates to CACO-2. The data set can be described thus: Second CACO-2 study, propranolol as reference. Conditions: for Ratio to Propranolol: A → B. Format: in vitro ADME.
Description: as §1

Data set [5] is described as follows: In situ rat perfusion model, metoprolol as reference. Format: in vivo. Conditions: rat. From the text:
The permeability was 18.2 nm/sec, which is higher than the 14.5 nm/sec value obtained for metoprolol (Table 13).

Data set [6] in a line: Solubility in water and toxicology vehicle (animal formulation). The class given is physicochemical. Here is the method: (§2) Solubility is enhanced slightly in the 2% Tween/0.5% methylcellulose toxicology vehicle, ranging from […]. 2% Tween may also increase GI membrane permeability.
A short description of data set [7]: Oral bioavailability in rat. Conditions: in vivo, read-out: Oral bioavailability (F %). Here is the method:
as §2
(§3) A prolonged absorption phase was observed together with decreasing bioavailability with increasing dose in both animal species. […] However, the absorption at pharmacological doses seemed reasonably complete albeit with delayed Tmax at lower GI when the drug is more soluble.

Data set [8] in a line: Oral bioavailability in dog. Conditions: in vivo, read-out: Oral bioavailability (F %). Here is the method:
as §2, §3

A short description of data set [9]: Solubility in various solvents at 25° C. and 50° C. Format: physicochemical.
Data set [10] can be described thus: Slurry in water at 50° C. (polymorphic transformation). The class given is physicochemical. Conditions: slurry in water at 50° C. for 12-24 hr. The procedure:
Powder XRD patterns comparing the starting material to polymorph pseudo Form A are shown in FIG. 34, and DSC thermograms of both batches at 50° C. are shown in FIG. 35.

Data set [11] in a line: First CACO-2 study, metoprolol as reference. Conditions: human; for recovery: Caco-2, pH 7.4, % Recovery, pH 7.4.
In data set [12] the test system is CACO-2. The data set can be described thus: First CACO-2 study, metoprolol as reference. Conditions: for Ratio to Metoprolol: pH 7.4.
Data set [13] relates to CACO-2. Conditions: human, Caco-2, pH 7.4.
Data set [14] in a line: in vitro. Conditions: human, Caco-2, pH 7.4.

The pKa is the negative logarithm of the acid dissociation constant. The low end stands for a group that gives up its proton readily, the high end for a group that holds its proton tightly. By solubility is commonly meant the concentration that dissolves in the medium under given conditions. The term Papp A→B denotes how fast a substance crosses the layer from the apical side. A low value points to slow passage. One may read the Papp B→A as the apparent permeability from the basolateral to the apical side of a cell layer. A word on the Papp: it is the rate of passage across a membrane or cell layer, normalised by area and donor concentration. Read a high Papp as ready permeation. Broadly, the bioavailability is the share of a dose that reaches the circulation, judged against a reference dose that is usually intravenous. Regarding `CC(C)(Cc1ccc(F)cc1)NC(=O)[C@H](CCC(=O)O)NC(=O)c1ccc(-c2ccccc2)cc1` [Compound (I), N^2-(1,1′-biphenyl-4-ylcarbonyl)-N^1-[2-(4-fluorophenyl)-1,1-dimethylethyl]-L-α-glutamine], the Forced degradation result in data set [1] was “subject to acid and peroxide degradation”. This compound came in with a pKa in data set [2] of 5.3. The amount in solution in data set [2] (aqueous buffer, thermodynamic from solid, S0 (intrinsic solubility of the free acid)) (solubility at 24 h) came to 4.5 µg/mL (≈ 0.00944 mM). Besides, the Papp A→B came out at 62.4 ×10⁻⁶ cm/s in data set [3] (A → B, apical pH 6, basolateral pH 7, without verapamil) and 14.9 ×10⁻⁶ cm/s in [11] (Caco-2, pH 7.4). Besides, the Papp B→A in [3] (B → A, apical pH 6, basolateral pH 7, without verapamil) came to 18.5 ×10⁻⁶ cm/s; in [11] (Caco-2, pH 7.4) it was 37.4 ×10⁻⁶ cm/s. Also, the efflux ratio in data set [3] (without verapamil, read-out: Ratio of B→A/A→B) was determined as 0.3; in data set [11] (Caco-2, pH 7.4), 2.36. For the same compound, the “Ratio to Propranolol” value came out at 0.77 in data set [4] (plus Verapamil) and 1.00 in data set [4] (without verapamil). For the same compound, the “mean ratio to propranolol” value in [4] (average of values with and without verapamil) was 0.88. Also, the “Ratio of B→A/A→B” value in data set [4] (plus Verapamil) and in data set [4] (without verapamil) was 0.3 throughout. The Permeability classification result in data set [4] (versus propranolol) was “low permeability”; in data set [5], “high permeability”; in [12] (pH 7.4, versus metoprolol), “low permeability”. In addition, the apparent permeability (Papp) at 20 μg/mL in [5] is 1.82 ×10⁻⁶ cm/s. Also, the “Peff × 10^−1 (μm/sec)” value in data set [5] (in vivo, 20 μg/mL) is 1.82 × 10^−1 μm/sec. Also, the “Ratio to Metoprolol” value in [5] (in vivo, 20 μg/mL) came to 1.26; in data set [12] (A → B) it was 0.25; in data set [12] (B → A), 0.59. The solubility in [6] (2% Tween/0.5% methylcellulose toxicology vehicle, aqueous with cosolvent or surfactant or cyclodextrin, read-out: Solubility in toxicology vehicle) was 220 to 470 µg/mL (≈ 0.462 to 0.986 mM); in [6] (water, pH 5.5, water, read-out: solubility in water), less than 100 µg/mL; in [9] (Water, 25° C.), 1600 µg/mL (≈ 3.36 mM); in data set [9] (Water, 50° C.), 1800 µg/mL (≈ 3.78 mM); in data set [9] (organic solvent or mixture, Acetonitrile, 25° C.), 43000 µg/mL (≈ 90.2 mM); in data set [9] (organic solvent or mixture, Acetonitrile, 50° C.), more than 133000 µg/mL. The solubility in data set [9] (organic solvent or mixture, EtAc (ethyl acetate), 25° C.) was more than 109000 µg/mL; in data set [9] (organic solvent or mixture, Ethanol, 25° C.), more than 137000 µg/mL; in data set [9] (organic solvent or mixture, Heptane, 25° C.), 700 µg/mL (≈ 1.47 mM); in data set [9] (organic solvent or mixture, Isopropyl acetate (IPAc), 25° C.), 76100 µg/mL (≈ 160 mM); in data set [9] (organic solvent or mixture, Isopropyl acetate (IPAc), 50° C.), more than 123000 µg/mL; in data set [9] (organic solvent or mixture, Isopropyl alcohol (IPA), 25° C.), more than 122000 µg/mL. The solubility in data set [9] (organic solvent or mixture, Toluene, 25° C.) amounted to 4300 µg/mL (≈ 9.02 mM); in [9] (organic solvent or mixture, Toluene, 50° C.) it was 15600 µg/mL (≈ 32.7 mM). Moreover, the “resulting pH” value in [6] (water) is “around 5.5”. Besides, the bioavailability in data set [7] (100 mg/kg) was approximately 100%; in data set [7] (Tox suspension, 25 mg/kg), 29%; in data set [8] (Tox suspension, 25 mg/kg), approximately 100%; in [8] (capsule containing neat drug) it was 65%. Also, in data set [10], the “Change of powder XRD pattern or melting point / polymorphic transformation” value is “not observed”. The recovery came out at 100% in data set [11] (A → B) and 156% in data set [11] (B → A).

For `C[C@H]1O[C@@H](O[C@H]2[C@@H](O)C[C@H](O[C@H]3[C@@H](O)C[C@H](O[C@H]4CC[C@@]5(C)[C@H](CC[C@@H]6[C@@H]5C[C@@H](O)[C@]5(C)[C@@H](C7=CC(=O)OC7)CC[C@]65O)C4)O[C@@H]3C)O[C@@H]2C)C[C@H](O)[C@@H]1O` [DigoxinS], the “% Recovery” value in data set [13] was found to be 117%. Further, in data set [14], the Papp A→B was determined as 2.06 ×10⁻⁶ cm/s and the Papp B→A came to 29.4 ×10⁻⁶ cm/s.
